Measured values: paper PMC11787888, “Development and confirmation of humanized plasma and epithelial lining fluid exposures of meropenem, cefiderocol and tobramycin in a standardized neutropenic murine pneumonia model” (Journal of Antimicrobial Chemotherapy, 2024)
Like-named read-outs stand apart in the source and are kept apart here.

Tests used:
[1] = human plasma, 2 g every 8 h as a 3 h infusion; cited from earlier work
[2] = human ELF, 2 g every 8 h as a 3 h infusion; cited from earlier work
[3] = ELF pharmacokinetics in the COMBINE murine neutropenic pneumonia model
Procedure: (§1) The model followed the COMBINE protocol with laboratory-specific detailed methods as follows.[6] Specific pathogen free CD-1, female mice 6–8 weeks old were acquired from Charles River Laboratories, Inc. (Raleigh, NC, USA). All animals were allowed to acclimatize for 72 h before any study procedures and were housed as groups of six at controlled room temperature in HEPA-filtered cages (Innovive, San Diego, CA, USA). Study rooms were maintained with diurnal cycles (12 h light/12 h dark) and food and water were provided ad libitum.
(§2) Neutropenia was achieved through 0.2 mL intraperitoneal (IP) administrations of cyclophosphamide 150 mg/kg on day minus 4 and an additional 100 mg/kg on day minus 1. A predictable degree of renal impairment was produced using 5 mg/kg of uranyl nitrate (Electron Microscopy Sciences, Hatfield, PA, USA) dissolved in sterile water administered as a 0.2 mL IP injection on day minus 3. […] Mice were anaesthetised using inhaled isoflurane, manually restrained upright and infected with 50 µL of bacterial suspension via the nares. Each bacterial inoculation suspension was used within 30 minutes of initial preparation.
(§3) The purpose of these studies was to establish HSRs in both plasma and ELF in the COMBINE murine neutropenic pneumonia model equivalent to clinical doses of meropenem (2 g every 8 h as 3 h infusion),[9] cefiderocol (2 g every 8 h as 3 h infusion)[10] and tobramycin (7 mg/kg as 0.5 h infusion)[11–13] based on unbound (free) exposures.
(§4) At predefined timepoints (shown in Figures 1–3), groups of six mice had blood sampled via retro-orbital bleeding (two time points, under anaesthesia with isoflurane 2%–3% v/v in 100% oxygen via inhalation) and/or cardiac puncture (one terminal time point). Proparacaine hydrochloride ophthalmic solution 0.5% was applied to the eye (1–2 drops) after blood sampling via retro-orbital bleeding. The volume of blood collected was 0.15 mL per sample via retro-orbital bleeding with subsequent fluid replacement using 0.2 mL normal saline given IP. Mice were euthanized by CO2 exposure before cardiac puncture. Following blood collection by cardiac puncture, but before cervical dislocation, bronchoalveolar lavage (BAL) fluid was collected from the mice at the same time points. A catheter was inserted into the trachea of the mice, and lungs were lavaged with four separate aliquots of 0.4 mL of normal saline. The BAL fluid was withdrawn immediately after injection and pooled for each animal. Pooled BAL was centrifuged for 10 min at 4°C and the supernatant was collected for analysis.
(§5) Drug concentrations in ELF were estimated by correcting the drug concentration in BAL fluid for the dilution with normal saline during lung lavage using the following formula: compoundELF = compoundBAL × (ureaplasma/ureaBAL), where compoundBAL is the measured drug concentration in the BAL fluid sample and ureaplasma and ureaBAL are the concentrations of urea in paired plasma and BAL fluid samples from each mouse, respectively. Owing to the lack of albumin in BAL fluid, total ELF concentrations were considered unbound.
(§6) Statistical outliers for each respective analyte were removed by the interquartile range method. Previously reported meropenem, cefiderocol and plazomicin (an aminoglycoside similar to tobramycin) plasma HSRs developed in alternative murine models were used as a baseline.[19],[20] Mathematical modifications were made to the baseline regimens as necessary to achieve translational exposures in the COMBINE model and repeat confirmatory PK studies were undertaken for both plasma and ELF.

[4] = Plasma pharmacokinetics in the COMBINE murine neutropenic pneumonia model
Procedure: as §1, §2, §3, §4, §5, §6

[5] = mouse ELF, best-fit one-compartment model
[6] = mouse plasma, best-fit one-compartment model

C[C@@H](O)[C@H]1C(=O)N2C(C(=O)O)=C(S[C@@H]3CN[C@H](C(=O)N(C)C)C3)[C@H](C)[C@H]12 [Meropenem, meropenem]
%fT > MIC for a MIC of 1 µg/mL [1]: 100% | %fT > MIC for a MIC of 2 µg/mL [1]: 100% | %fT > MIC for a MIC of 4 µg/mL [1]: 100% | %fT > MIC for a MIC of 8 µg/mL [1]: 78% | %fT > MIC for a MIC of 16 µg/mL [1]: 50% | %fT > MIC for a MIC of 32 µg/mL [1]: 19% | %fT > MIC for a MIC of 64 µg/mL [1]: 0% | %fT > MIC for a MIC of 128 µg/mL [1]: 0% | %fT > MIC for a MIC of 1 µg/mL [2]: 90% | %fT > MIC for a MIC of 2 µg/mL [2]: 71% | %fT > MIC for a MIC of 4 µg/mL [2]: 50% | %fT > MIC for a MIC of 8 µg/mL [2]: 16% | %fT > MIC for a MIC of 16 µg/mL [2]: 0% | %fT > MIC for a MIC of 32 µg/mL [2]: 0% | %fT > MIC for a MIC of 64 µg/mL [2]: 0% | %fT > MIC for a MIC of 128 µg/mL [2]: 0% | k el ([3]; female, CD-1, mouse, epithelial lining fluid (ELF), sc): 0.000694 s⁻¹ | %fT > MIC for a MIC of 1 µg/mL ([3]; mouse ELF, ELF HSR): 78% | %fT > MIC for a MIC of 2 µg/mL ([3]; mouse ELF, ELF HSR): 62% | %fT > MIC for a MIC of 4 µg/mL ([3]; mouse ELF, ELF HSR): 43% | %fT > MIC for a MIC of 8 µg/mL ([3]; mouse ELF, ELF HSR): 14% | %fT > MIC for a MIC of 16 µg/mL ([3]; mouse ELF, ELF HSR): 3% | %fT > MIC for a MIC of 32 µg/mL ([3]; mouse ELF, ELF HSR): 0% | %fT > MIC for a MIC of 64 µg/mL ([3]; mouse ELF, ELF HSR): 0% | %fT > MIC for a MIC of 128 µg/mL ([3]; mouse ELF, ELF HSR): 0% | K a-ELF (absorption rate constant into ELF compartment) [3, 5]: 7.00 h⁻¹ | V ELF (volume of distribution in ELF compartment) [3, 5]: 1.60 L/kg | k el ([4]; female, CD-1, mouse, plasma, sc): 0.00754 s⁻¹ | K a (absorption rate constant into central compartment) [4, 6]: 1.34 h⁻¹ | V plasma (volume of distribution in central compartment) [4, 6]: 0.04 L/kg | %fT > MIC for a MIC of 1 µg/mL ([4]; mouse plasma, plasma HSR): 100% | %fT > MIC for a MIC of 2 µg/mL ([4]; mouse plasma, plasma HSR): 100% | %fT > MIC for a MIC of 4 µg/mL ([4]; mouse plasma, plasma HSR): 94% | %fT > MIC for a MIC of 8 µg/mL ([4]; mouse plasma, plasma HSR): 75% | %fT > MIC for a MIC of 16 µg/mL ([4]; mouse plasma, plasma HSR): 55% | %fT > MIC for a MIC of 32 µg/mL ([4]; mouse plasma, plasma HSR): 29% | %fT > MIC for a MIC of 64 µg/mL ([4]; mouse plasma, plasma HSR): 5% | %fT > MIC for a MIC of 128 µg/mL ([4]; mouse plasma, plasma HSR): 0%
